# Experimental data published in US20170226139A1, “CRYSTALLINE SALTS OF (Z)-O-OCTADEC-9-EN-1-YL O,O-DIHYDROGEN PHOSPHOROTHIOATE” (priority 2013, published 2017).
# “Also recorded” adds a separate entry of the source. Where two headings read alike, the source gives them in different places.
# Experiments:
# [1] = test system: lysophosphatidic acid receptor (LPAR); experiment: Calcium-mobilization assay, overall statements for all species and LPAR subtypes tested; assay type: cell-based
# Description: The compound was medicinally designed as an LPA analog with the goal of decreasing the otherwise rapid metabolism of LPA itself. […] These receptors are ubiquitous by tissue and in those eukaryotes investigated. […] Thus, the mechanism of drug action for GI-ARS protection is activation of the transmembrane G protein-coupled lysophosphatidic acid receptor (LPAR) and, more specifically, the LPAR2 GPCR subtype. The primary pharmacodynamics is that LPAR2 activation leads to a cascade of intracellular events that switch cells from an apoptotic to a repair/regenerative pathway.
# We investigated structure-activity relationships across species, LPAR subtypes and between Rx100 and two known process impurities encountered in manufacture: Rx103 (‘E’ isomer) and Rx200 (oleyl phosphate and impurity, which can be an Rx100 degradant along with oleyl alcohol). Rx100, Rx103, Rx200 and native LPA were investigated at different human LPAR subtypes. In addition, the activity of these compounds was evaluated at LPA2 receptors from the rhesus, rat and mouse species. Human LPA1/2/3 subtypes were transfected into mouse embryonic fibroblasts (MEF) or rat hepatoma cells (RH7777)—both of which are normally non-responsive or null to LPA. Human LPA4 was transfected into Chinese hamster ovary (CHO) cells and LPA5 into the B103 neuroblastoma cell line. […] The B103 rat neuroblastoma cell line is endogenously nonresponsive to LPA but expresses heterologous LPA5 receptors well. […] LPAR activation elicits a G-protein-mediated transient rise in intracellular calcium level that is proportional to the concentration of LPA applied. The intracellular calcium level was quantified by the calcium-selective fluorescent indicator FURA-2 (e.g., increased intracellular calcium surge=increased fluorescence).
# Oleyl alcohol is, of course, a common component of many non-toxic ingested or dermally applied substances.
# [2] = Subcutaneous and intravenous pharmacokinetics in healthy and irradiated Rhesus Macaques; assay type: in vivo
# Method: We performed a cross-over comparison of subcutaneous and intravenous pharmacokinetics of Rx100.L-Lysine in six healthy Rhesus Macaques and subcutaneous pharmacokinetic and Pharmacodynamics of Rx100.L-Lysine after a single irradiation in six Rhesus Macaques.
# Rhesus macaques (male, 3-5 kg) were administered vehicle control article (10 mM Histidine in sterile water for Injection, USP) or Rx100.Lysine salt as a single injection via subcutaneous injection or as an intravenous bolus as indicated in Table 32.
# Blood was collected at baseline (7-10 days prior to dose administration), pre-dose (within 30 minutes), 0.5, 1, 2, 4, 6, 8, 24, 48, 72, 96, and 120 hours after dosing for phases 1 and 2. The phase 3 (post-irradiation phase) blood was collected at baseline (7-10 days prior to dose administration), pre-dose (within 30 minutes), 0.5, 1, 2, 4, 6, 8, 24, 48, 72, and 96 hours after dosing. The dose in phase 3 was administered approximately 24 hours after exposure to 11.5 Gy Partial Body Irradiation. Samples, approximately 1.0 mL, were collected and maintained on wet ice in vials containing Di-Potassium EDTA until centrifugation. Samples were stored in a freezer set to maintain −70° C. to −90° C. until shipped on dry ice for analysis.
# Analysis was performed using qualified and validated Phoenix® WinNonlin® Software and RxBio™ SOP PRE-0030™, Phoenix® WinNonlin® Software for Statistical Analysis. The final data provided was imported into Phoenix® WinNonlin®. All data presented were generated using the validated Phoenix® WinNonlin® Software. Concentrations reported as BLOQ were treated as missing values for the purpose of this analysis. A non-compartmental pharmacokinetic analysis was performed for each subject separately for IV, SC, and SC+IR. The automatic terminal slope selector function was used along with nominal dose (1 mg/kg) with a dosing interval set at 120 hours since this was a single dose study. The terminal slope was selected from the last 3 quantifiable plasma concentrations for each subject (48-96 hours for the Phase 3 Irradiated subjects and 72-120 for all healthy subjects). Selected pharmacokinetic estimations are presented in Table 33, time of maximum concentration (Tmax (h)), maximum concentration observed (Cmax (ng/mL)), exposure or area under the concentration vs time curve (AUC (h*ng/mL)), volume of distribution (Vz_F ([…])), clearance (CL_F (mL/h/kg), and half-life (T½ or HL_Lambda_z (h)).
# [3] = SC 1 mg/kg about 24 h after 11.5 Gy, Average of 6 animals
# [4] = SC 1 mg/kg, healthy, Average of 6 animals
# [5] = male, rhesus monkey, plasma, iv, 1 mg/kg, IV 1 mg/kg, healthy, Average of 6 animals
# [6] = male, rhesus monkey, plasma, iv, 1 mg/kg, IV 1 mg/kg, healthy, individual animals (ID in c1)
# [7] = male, rhesus monkey, plasma, sc, 1 mg/kg, SC 1 mg/kg about 24 h after 11.5 Gy, Average of 6 animals
# [8] = male, rhesus monkey, plasma, sc, 1 mg/kg, SC 1 mg/kg, healthy, Average of 6 animals
smiles,measurement,setting,value
"CCCCCCCC/C=C\CCCCCCCCOP(O)(O)=S [Rx100, (Z)—O-octadec-9-en-1-yl O,O-dihydrogen phosphorothioate]",LPAR activation,[1],pan lysophosphatidic acid receptor (LPAR) agonist; also recorded: substantially more in vitro activity
"CCCCCCCC/C=C\CCCCCCCCOP(O)(O)=S [Rx100.L-Lysine, (Z)—O-octadec-9-en-1-yl O,O-dihydrogen phosphorothioate]",λz,"[2]; IV 1 mg/kg, healthy, Average of 6 animals",0.049 ± 0.020 h⁻¹
same,CL,[2]; [3],0.333 ± 0.12 mL/min/kg
same,Vd,[2]; [3],0.251 ± 0.091 L/kg
same,λz,[2]; [3],0.079 ± 0.006 h⁻¹
same,Vd,[2]; [4],0.26 ± 0.083 L/kg
same,λz,[2]; [4],0.066 ± 0.004 h⁻¹
same,F,[2]; SC post IR,0.89±0.2
same,clearance (CL),"[2]; SC post IR, 1 mg/kg",0.333 ± 0.12 mL/min/kg
same,volume of distribution (Vd),"[2]; SC post IR, 1 mg/kg",0.251 ± 0.091 L/kg
same,fraction absorbed after subcutaneous administration (F),"[2]; SC, healthy, versus IV",1.0±0.18
same,volume of distribution (Vd),"[2]; SC, healthy, single dose 1 mg/kg",0.26 ± 0.083 L/kg
same,AUC,[2]; [5],63200 ± 15100 ng·h/mL
same,Cmax,[2]; [5],18600 ± 1760 ng/mL
same,AUC(0-inf),"[2]; male, rhesus monkey, plasma, iv, 1 mg/kg, IV 1 mg/kg, healthy, Average of 6 animals, read-out: AUCINF",63200 ± 15100 ng·h/mL
same,clearance,"[2]; male, rhesus monkey, plasma, iv, 1 mg/kg, IV 1 mg/kg, healthy, Average of 6 animals, read-out: CL (converted)",0.283 mL/min/kg
same,half-life,"[2]; male, rhesus monkey, plasma, iv, 1 mg/kg, IV 1 mg/kg, healthy, Average of 6 animals, read-out: T1/2 (converted)",16.4 ± 7.29 h
same,Vd,"[2]; male, rhesus monkey, plasma, iv, 1 mg/kg, IV 1 mg/kg, healthy, Average of 6 animals, read-out: Vd",0.428 ± 0.29 L/kg
same,AUC,[2]; [6],73500 ng·h/mL
same,Cmax,[2]; [6],15900 ng/mL
same,AUC(0-inf),"[2]; male, rhesus monkey, plasma, iv, 1 mg/kg, IV 1 mg/kg, healthy, individual animals (ID in c1), read-out: AUCINF",73500 ng·h/mL
same,clearance,"[2]; male, rhesus monkey, plasma, iv, 1 mg/kg, IV 1 mg/kg, healthy, individual animals (ID in c1), read-out: CL (converted)",0.233 mL/min/kg
same,clearance,"[2]; male, rhesus monkey, plasma, iv, 1 mg/kg, IV, healthy, 1 mg/kg, read-out: clearance (CL) (converted)",0.283 mL/min/kg
same,AUC(0-inf),"[2]; male, rhesus monkey, plasma, iv, 1 mg/kg, IV, healthy, 1 mg/kg, read-out: exposure (AUCINF)",63200 ± 15100 ng·h/mL
same,half-life,"[2]; male, rhesus monkey, plasma, iv, 1 mg/kg, IV, healthy, 1 mg/kg, read-out: half-life (converted)",16.4 ± 7.29 h
same,Vd,"[2]; male, rhesus monkey, plasma, iv, 1 mg/kg, IV, healthy, 1 mg/kg, read-out: volume of distribution (Vd)",0.428 ± 0.29 L/kg
same,half-life,"[2]; male, rhesus monkey, plasma, iv, 1 mg/kg, IV, healthy, read-out: half-life, range of individual subjects",9.37 to 28.8 h
same,Cmax,"[2]; male, rhesus monkey, plasma, iv, 1 mg/kg, intravenous bolus, healthy",18600 ± 1760 ng/mL
same,AUC,[2]; [7],57300 ± 24200 ng·h/mL
same,Cmax,[2]; [7],3110 ± 887 ng/mL
same,Tmax,[2]; [7],4 ± 2 h
same,AUC(0-inf),"[2]; male, rhesus monkey, plasma, sc, 1 mg/kg, SC 1 mg/kg about 24 h after 11.5 Gy, Average of 6 animals, read-out: AUCINF",57300 ± 24200 ng·h/mL
same,half-life,"[2]; male, rhesus monkey, plasma, sc, 1 mg/kg, SC 1 mg/kg about 24 h after 11.5 Gy, Average of 6 animals, read-out: T1/2 (converted)",8.76 ± 0.621 h
same,half-life,"[2]; male, rhesus monkey, plasma, sc, 1 mg/kg, SC 1 mg/kg about 24 h after 11.5 Gy, individual animals (ID in c1), read-out: T1/2 (converted)",9.21 h
same,AUC,[2]; [8],63700 ± 21400 ng·h/mL
same,Cmax,[2]; [8],3130 ± 637 ng/mL
same,Tmax,[2]; [8],4 ± 2 h
same,AUC(0-inf),"[2]; male, rhesus monkey, plasma, sc, 1 mg/kg, SC 1 mg/kg, healthy, Average of 6 animals, read-out: AUCINF",63700 ± 21400 ng·h/mL
same,half-life,"[2]; male, rhesus monkey, plasma, sc, 1 mg/kg, SC 1 mg/kg, healthy, Average of 6 animals, read-out: T1/2 (converted)",10.5 ± 0.6 h
same,Cmax,"[2]; male, rhesus monkey, plasma, sc, 1 mg/kg, SC 1 mg/kg, healthy, individual animals (ID in c1)",2390 ng/mL
same,half-life,"[2]; male, rhesus monkey, plasma, sc, 1 mg/kg, SC 1 mg/kg, healthy, individual animals (ID in c1), read-out: T1/2 (converted)",10.6 h
same,Cmax,"[2]; male, rhesus monkey, plasma, sc, 1 mg/kg, SC post IR",3110 ± 887 ng/mL
same,Tmax,"[2]; male, rhesus monkey, plasma, sc, 1 mg/kg, SC post IR (~24 hours after 11.5 Gy Partial Body Irradiation), 1 mg/kg",4 ± 2 h
same,AUC(0-inf),"[2]; male, rhesus monkey, plasma, sc, 1 mg/kg, SC post IR, 1 mg/kg, read-out: exposure (AUCINF)",57300 ± 24200 ng·h/mL
same,half-life,"[2]; male, rhesus monkey, plasma, sc, 1 mg/kg, SC post IR, 1 mg/kg, read-out: half-life (converted)",8.76 ± 0.621 h
same,half-life,"[2]; male, rhesus monkey, plasma, sc, 1 mg/kg, SC, healthy, read-out: T½, range of individual subjects",9.67 to 10.7 h
same,AUC(0-inf),"[2]; male, rhesus monkey, plasma, sc, 1 mg/kg, SC, healthy, single dose 1 mg/kg, read-out: exposure (AUCINF)",63700 ± 21400 ng·h/mL
same,half-life,"[2]; male, rhesus monkey, plasma, sc, 1 mg/kg, SC, healthy, single dose 1 mg/kg, read-out: half-life (converted)",10.5 ± 0.6 h
same,half-life,"[2]; male, rhesus monkey, plasma, sc, 1 mg/kg, SC, irradiated animals, read-out: half-life, range of individual subjects",7.88 to 9.66 h
same,Cmax,"[2]; male, rhesus monkey, plasma, sc, 1 mg/kg, healthy, single dose 1 mg/kg",3130 ± 637 ng/mL
same,Tmax,"[2]; male, rhesus monkey, plasma, sc, 1 mg/kg, healthy, single dose 1 mg/kg, mean ± SD",4 ± 2 h
